Tests used:
rats = experiment: Spontaneous locomotor activity (open field horizontal ambulation); type: in vivo, rat
Method: Locomotor activity was monitored and quantified under low light conditions using a modified open field activity system (San Diego Instruments, San Diego, Calif.) according to previous publications with minor modifications (Cunningham et al., 2011, Neuropharmacology 61:513-523). Clear Plexiglass chambers (40×40×40 cm) were surrounded by a 4×4 photobeam matrix positioned 4 cm from the chamber floor. Consecutive photobeam breaks within the 16×16 cm of the activity monitor were recorded as central ambulation. Peripheral ambulation was counted as consecutive beam breaks in the surrounding perimeter. Central and peripheral ambulations were summed to provide a measure of total horizontal ambulation. […] The effects of CYD-1-78-2 and CYD-1-79 alone or in combination with the selective 5-HT2CR agonist WAY163909 were established in a within-subjects design. To control for order effects, drug doses and vehicles were administered in random sequence to individual rats across sessions such that all rats received all treatment combinations and were tested every three days. Rats received vehicle (saline, 1 mL/kg, i.p.), CYD-1-78-2 (0.5, 1, or 3 mg/kg, i.p.) or the combination of CYD-1-78-2 (0.5 mg/kg, i.p.) plus WAY163909 (1 mg/kg, i.p.) immediately prior to placement in activity monitors on each test day; locomotor activity was assessed for 90 min. In a separate cohort of rats, rats received vehicle (saline, 1 mL/kg, i.p.), CYD-1-79 (0.5, 1, or 5 mg/kg, i.p.) or the combination of CYD-1-79 (0.5 mg/kg, i.p.) plus WAY163909 (1 mg/kg, i.p.) immediately prior to placement in activity monitors on each test day; locomotor activity was assessed for 90 min. The combination of CYD-1-78-2 plus WAY163909 or CYD-1-79 plus WAY163909 was administered simultaneously.
Locomotor activity data are presented as mean total horizontal ambulation (±SEM) over the entire 90-min session or within 5 min time bins across the session. A two-way ANOVA for repeated measures for the factors of treatment and time was conducted. The main effect of treatment on total horizontal ambulation was analyzed with a repeated measures, one-way analysis of variance using the GLM procedure (SAS for Windows). Subsequent a priori comparisons between means for total horizontal ambulation were made using the Dunnett's procedure, with vehicle (saline) as the comparator.

5-HT2AR = molecular target: T1, 5-HT2AR (Homo sapiens, UniProt P28223); experiment: 5-HT induced intracellular calcium (Cai++) release assay in live 5-HT2AR-CHO cells; type: cell-based; conditions: compound alone or in the presence of 5-HT
T1 construct: expressed in transfected cells; host or cells: CHO cells (5-HT2AR—CHO)
Method: Selected results for the biological characterization of the synthesized compounds can be found in Ding et al., ACS Chem. Neurosci., 3, 538-545, 2012, and also described herein. The biological activity is assessed using an intracellular calcium (Cai^++) release assay. The best-characterized intracellular signaling pathway of the 5-HT2CR is the activation of phospholipase C (PLCβ) via Gαq/11 proteins and the production of diacylglycerol (DAG) and inositol-1,4,5-trisphosphate (IP3), leading to increased Cai^++ release from intracellular stores (Berg et al., Neuropharmacology 55, 969-76, 2008). Functional characterization of our synthetic PNU-69176E (CYD-1-78-2) and its diastereomer CYD-1-78-1 was determined by utilizing an Cai^++ release assay in live cells in which Cai^++ levels can be regarded as an outcome measure of activation of the 5-HT2CR signaling pathway (Berg et al., Neuropharmacology 55, 969-76, 2008). […]
Changes in Cai^++ levels were determined using the calcium sensitive dye Calcium 4 (FLIPR No-wash kit, Molecular Devices, Sunnyvale, Calif., part #R8142). […] Fluorescence (λex=485 nm, λem=525 nm) was measured with a FlexStation3 (Molecular Devices). […] Addition of 20 μL of 5× concentrated tested compound occurred at 17 sec and fluorescence was recorded every 1.7 sec for 90 sec to determine any innate agonist activity. […]

T1 sequence (P28223 whole entry): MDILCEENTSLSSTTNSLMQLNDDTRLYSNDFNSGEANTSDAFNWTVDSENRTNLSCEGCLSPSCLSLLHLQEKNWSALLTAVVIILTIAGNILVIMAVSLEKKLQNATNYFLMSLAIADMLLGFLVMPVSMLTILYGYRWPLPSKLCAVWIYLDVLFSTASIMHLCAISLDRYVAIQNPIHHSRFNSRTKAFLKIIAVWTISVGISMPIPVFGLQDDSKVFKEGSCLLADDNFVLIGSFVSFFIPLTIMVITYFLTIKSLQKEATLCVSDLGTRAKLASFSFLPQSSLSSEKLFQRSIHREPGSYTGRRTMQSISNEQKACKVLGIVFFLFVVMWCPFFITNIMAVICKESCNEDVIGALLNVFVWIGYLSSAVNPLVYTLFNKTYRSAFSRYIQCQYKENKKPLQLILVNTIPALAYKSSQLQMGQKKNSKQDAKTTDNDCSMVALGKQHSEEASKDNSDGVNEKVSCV

- alteration of Cai++ release in 5-HT2AR-CHO cells (5-HT2AR): neither
SMILES: CCCCCCCCCCC[C@@H]1CCN[C@H](C(=O)N[C@@H]([C@H]2O[C@H](SC)[C@H](O)[C@@H](O)[C@H]2O)[C@H](C)Cl)C1.Cl [CYD-1-78-2]
- effect on spontaneous locomotor activity (rats; 0.5 mg/kg alone): ineffective
- total horizontal ambulation versus saline, combination with WAY163909 (rats; 0.5 mg/kg i.p. plus WAY163909 1 mg/kg i.p., 90-min session, p<0.05): significantly reduces
- horizontal ambulation versus saline in 5-min intervals, combination with WAY163909 (rats; 0.5 mg/kg i.p. plus WAY163909 1 mg/kg i.p., CYD-1-78-2: interval 1 and 2, CYD-1-79: interval 2, p<0.05): significantly reduces
- horizontal ambulation versus saline in 5-min intervals (rats; 1 mg/kg i.p., at interval 4, 5 and 6, p<0.05): significantly reduces
- total horizontal ambulation summed across the 90-min test session versus saline (rats; 1 mg/kg i.p., p<0.05): significantly reduces
- horizontal ambulation versus saline in 5-min intervals (rats; 3 mg/kg i.p., at interval 1, 2, 3 and 11, p<0.05): significantly reduces
- total horizontal ambulation summed across the 90-min test session versus saline (rats; 3 mg/kg i.p., p<0.05): significantly reduces
- total ambulations (rats; 1 and 3 mg/kg, i.p., unhabituated animals, 90 minutes): dose-dependently decreases
- selective 5-HT2CR agonist-mediated suppression of spontaneous locomotor activity (rats; with WAY163909): augment
